In ChEMBL document CHEMBL4428099, “Identification of indole scaffold-based dual inhibitors of NOD1 and NOD2” (Bioorg Med Chem, 2016):
Calls of active or inactive are those of the source. No cut-off for these calls is given here.

Tests used:
Assay type in all cases: cell-based
[1] = Cytotoxicity against HEK-Blue cells assessed as residual metabolic activity up to 25 uM measured after 24 hrs by MTS assay relative to untreated control; settings: human, read-out: Activity
[2] = target: T1, Nucleotide-binding oligomerization domain-containing protein 1 (Homo sapiens) (UniProt Q9Y239); assay: Inhibition of human NOD1 over-expressed in HEK-Blue cells assessed as inhibition of […] NF-kappaB transcriptional activity measured as residual activity at 25 uM preincubated for 1 hr followed by addition of C12-iE-DAP measured after 18 hrs by SEAP reporter gene assay relative to control
T1 sequence (whole entry): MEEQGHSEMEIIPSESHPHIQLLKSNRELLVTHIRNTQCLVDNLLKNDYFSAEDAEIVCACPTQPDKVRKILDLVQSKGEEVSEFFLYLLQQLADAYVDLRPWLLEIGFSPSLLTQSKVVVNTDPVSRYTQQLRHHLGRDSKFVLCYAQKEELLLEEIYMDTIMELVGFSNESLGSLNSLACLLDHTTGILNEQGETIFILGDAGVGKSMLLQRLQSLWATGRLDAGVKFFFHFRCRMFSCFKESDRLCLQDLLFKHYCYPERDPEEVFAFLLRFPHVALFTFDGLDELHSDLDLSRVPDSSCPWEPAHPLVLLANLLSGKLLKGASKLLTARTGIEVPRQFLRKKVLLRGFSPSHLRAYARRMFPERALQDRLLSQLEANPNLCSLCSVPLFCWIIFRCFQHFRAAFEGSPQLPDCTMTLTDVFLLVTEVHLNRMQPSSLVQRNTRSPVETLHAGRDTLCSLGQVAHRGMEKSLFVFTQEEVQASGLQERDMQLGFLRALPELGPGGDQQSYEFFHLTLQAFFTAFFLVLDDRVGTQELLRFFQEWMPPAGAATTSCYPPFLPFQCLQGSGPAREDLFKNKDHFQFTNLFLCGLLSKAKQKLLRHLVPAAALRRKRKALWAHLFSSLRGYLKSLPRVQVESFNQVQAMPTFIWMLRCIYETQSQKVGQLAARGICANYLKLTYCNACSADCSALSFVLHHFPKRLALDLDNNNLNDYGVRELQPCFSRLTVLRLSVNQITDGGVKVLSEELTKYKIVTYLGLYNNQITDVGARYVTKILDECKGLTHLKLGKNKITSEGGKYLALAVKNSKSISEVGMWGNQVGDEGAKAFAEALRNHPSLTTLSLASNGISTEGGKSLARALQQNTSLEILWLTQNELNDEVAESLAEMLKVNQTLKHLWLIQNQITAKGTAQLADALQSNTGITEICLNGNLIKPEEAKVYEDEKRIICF

[3] = target: Nucleotide-binding oligomerization domain-containing protein 2 (Homo sapiens, UniProt Q9HC29); assay: Inhibition of human NOD2 over-expressed in HEK-Blue cells assessed as inhibition of […] NF-kappaB transcriptional activity preincubated for 1 hr followed by addition of C12-iE-DAP measured after 18 hrs by SEAP reporter gene assay
Chain of Nucleotide-binding oligomerization domain-containing protein 2 (Q9HC29 whole entry, the tested form may be a part): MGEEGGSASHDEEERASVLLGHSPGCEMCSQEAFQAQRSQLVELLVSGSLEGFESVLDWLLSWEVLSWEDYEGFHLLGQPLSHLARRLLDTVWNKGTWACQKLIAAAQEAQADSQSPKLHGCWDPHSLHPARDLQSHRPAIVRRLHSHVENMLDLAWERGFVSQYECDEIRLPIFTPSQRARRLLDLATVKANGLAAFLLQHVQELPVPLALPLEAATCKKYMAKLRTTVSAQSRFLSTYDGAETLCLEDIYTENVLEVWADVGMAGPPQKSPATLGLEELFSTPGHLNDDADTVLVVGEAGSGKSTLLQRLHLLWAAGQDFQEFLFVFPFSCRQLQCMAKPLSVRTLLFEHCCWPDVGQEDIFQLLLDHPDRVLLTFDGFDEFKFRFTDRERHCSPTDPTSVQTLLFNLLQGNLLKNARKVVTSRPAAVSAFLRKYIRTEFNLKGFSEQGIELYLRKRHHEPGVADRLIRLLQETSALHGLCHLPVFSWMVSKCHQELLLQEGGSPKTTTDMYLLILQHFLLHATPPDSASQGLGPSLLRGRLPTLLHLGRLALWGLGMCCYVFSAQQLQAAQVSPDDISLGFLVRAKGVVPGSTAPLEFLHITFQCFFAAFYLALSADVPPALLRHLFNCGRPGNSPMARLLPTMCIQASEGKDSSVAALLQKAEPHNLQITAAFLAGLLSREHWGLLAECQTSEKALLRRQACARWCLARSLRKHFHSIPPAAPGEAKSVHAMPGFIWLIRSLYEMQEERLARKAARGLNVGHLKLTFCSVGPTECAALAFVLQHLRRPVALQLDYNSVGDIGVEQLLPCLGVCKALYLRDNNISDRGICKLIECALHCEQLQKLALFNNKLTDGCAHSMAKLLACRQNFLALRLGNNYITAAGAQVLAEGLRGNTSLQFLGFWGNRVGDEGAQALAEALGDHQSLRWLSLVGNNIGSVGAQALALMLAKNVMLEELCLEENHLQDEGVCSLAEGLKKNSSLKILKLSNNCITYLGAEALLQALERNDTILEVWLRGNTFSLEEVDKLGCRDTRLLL

[4] = target: T2, Nucleotide-binding oligomerization domain-containing protein 1 (Homo sapiens, UniProt Q9Y239); assay: Inhibition of human NOD1 over-expressed in HEK-Blue cells assessed as inhibition of […] NF-kappaB transcriptional activity preincubated for 1 hr followed by addition of C12-iE-DAP measured after 18 hrs by SEAP reporter gene assay
T2 sequence (Q9Y239 whole entry): T1 sequence (whole entry)

Activity [2] | SMILES | viability at 24 h [1] [%] | IC50 [3] [µM] | IC50 [4] [µM]
 | Cc1ccc(S(=O)(=O)N2C(=N)Cc3ccccc32)cc1 | ≥ 80 |  | 
 | CCOC(=O)c1cc2ccccc2n1C(=O)c1ccc(C)cc1 | ≥ 80 | 24.6 | 16
53% | CCOC(=O)c1cc2ccccc2n1Cc1ccc(F)cc1 | ≥ 80 |  | 
inactive | N=C1Cc2ccccc2N1Cc1ccc(C(F)(F)F)cc1 | ≥ 80 |  | 
46% | CCOC(=O)c1cc2ccccc2n1Cc1ccc(C(F)(F)F)cc1 | ≥ 80 |  | 
 | Cc1ccc(S(=O)(=O)n2c(C(=O)O)cc3ccccc32)cc1 | ≥ 80 |  | 
 | O=C(O)c1cc2ccccc2n1Cc1ccc(Cl)cc1 | ≥ 80 |  | 
39% | CCOC(=O)c1cc2ccccc2n1Cc1ccc(C2CC2)cc1 | ≥ 80 |  | 
42% | CCOC(=O)c1cc2ccccc2n1Cc1ccc(C(C)C)cc1 | ≥ 80 |  | 
45% | CCOC(=O)c1cc2ccccc2n1Cc1ccc(Br)cc1 | ≥ 80 |  | 
29% | CCOC(=O)c1cc2ccccc2n1Cc1ccc(Cl)cc1 | ≥ 80 |  | 
58% | CCOC(=O)c1cc2ccccc2n1Cc1ccccc1 | ≥ 80 |  | 
 | Cc1ccc(S(=O)(=O)n2c(NC(=O)OC(C)(C)C)cc3ccccc32)cc1 | ≥ 80 |  | 
37% | CCOC(=O)c1cc2ccccc2n1S(=O)(=O)c1ccc(C(F)(F)F)cc1 | ≥ 80 |  | 
76% | Cc1ccc(S(=O)(=O)n2c(C(N)=O)cc3ccccc32)cc1 | ≥ 80 |  | 
9% | Cc1ccc(S(=O)(=O)n2c(N)nc3ccccc32)cc1 | ≥ 80 | 54.9 | 
68% | Cc1ccc(S(=O)(=O)n2c(C(=O)NN)cc3ccccc32)cc1 | ≥ 80 |  | 
 | CC(C)(C)OC(=O)Nc1cc2ccccc2n1Cc1ccc(Cl)cc1 | ≥ 80 |  | 
36% | CCOC(=O)c1cc2ccccc2n1S(=O)(=O)c1ccc(OC)cc1 | ≥ 80 |  | 

SMILES | Activity [2] | viability at 24 h [1] [%] | IC50 [3] [µM] | IC50 [4] [µM]
CCOC(=O)c1cc2ccccc2n1S(=O)(=O)c1ccc(C)cc1 | 24% | ≥ 80 | 6.45 | 5.74
N=C1Cc2ccccc2N1Cc1ccc(Cl)cc1 | 44% | ≥ 80 | > 25 | 15.7
CC(C)c1ccc(CN2C(=N)Cc3ccccc32)cc1 | inactive | ≥ 80 |  | 
CCOC(=O)c1cc2ccccc2n1S(=O)(=O)c1ccc(F)cc1 | 24% | ≥ 80 | 12.6 | 9.22
CCOC(=O)c1cc2ccccc2n1S(=O)(=O)c1ccc(Cl)cc1 | 30% | ≥ 80 | 23.4 | 19.8
N=C1Cc2ccccc2N1Cc1ccccc1 | 72% | ≥ 80 |  | 
CCOC(=O)c1cc2ccccc2n1S(=O)(=O)c1ccc([N+](=O)[O-])cc1 | 27% | ≥ 80 | 16.9 | 15
CCOC(=O)c1cc2ccccc2n1Cc1ccc(C)cc1 | 24% | ≥ 80 | 9.04 | 7.78
Cc1ccc(CN2C(=N)Cc3ccccc32)cc1 | inactive | ≥ 80 |  | 
N=C1Cc2ccccc2N1Cc1ccc(Br)cc1 | inactive | ≥ 80 |  | 
N=C1Cc2ccccc2N1Cc1ccc(C2CC2)cc1 | inactive | ≥ 80 |  | 
